Data reported in ChEMBL document CHEMBL1629456, “ApoA-I mimetic peptides promote pre-β HDL formation in vivo causing remodeling of HDL and triglyceride accumulation at higher dose” (Bioorg Med Chem, 2010).
*1 amine or outer side, *2 acyl side, *3 side chain or, on linkers, in order; H or OH if unused. Where a SMILES comes first, the peptide text is derived from it. [ ]: non-standard residue; d: D form. Gly(oct-7-en-1-yl) = C=CCCCCCC[C@H](N)C(=O)O; dGly(6-heptenyl) = C=CCCCCC[C@@H](N)C(=O)O; Ala(5-hexenyl) = C=CCCCCC[C@H](N)C(=O)O; X2 = C=CCCCC[C@H](N[*:1])C(=O)[*:2]

molecular target: Phospholipid-transporting ATPase ABCA1 (Mus musculus, UniProt P41233); experiment: Induction of ABCA1-mediated [3H]cholesterol efflux in mouse RAW 264.7 macrophages after 24 hrs
Sequence (P41233 whole entry): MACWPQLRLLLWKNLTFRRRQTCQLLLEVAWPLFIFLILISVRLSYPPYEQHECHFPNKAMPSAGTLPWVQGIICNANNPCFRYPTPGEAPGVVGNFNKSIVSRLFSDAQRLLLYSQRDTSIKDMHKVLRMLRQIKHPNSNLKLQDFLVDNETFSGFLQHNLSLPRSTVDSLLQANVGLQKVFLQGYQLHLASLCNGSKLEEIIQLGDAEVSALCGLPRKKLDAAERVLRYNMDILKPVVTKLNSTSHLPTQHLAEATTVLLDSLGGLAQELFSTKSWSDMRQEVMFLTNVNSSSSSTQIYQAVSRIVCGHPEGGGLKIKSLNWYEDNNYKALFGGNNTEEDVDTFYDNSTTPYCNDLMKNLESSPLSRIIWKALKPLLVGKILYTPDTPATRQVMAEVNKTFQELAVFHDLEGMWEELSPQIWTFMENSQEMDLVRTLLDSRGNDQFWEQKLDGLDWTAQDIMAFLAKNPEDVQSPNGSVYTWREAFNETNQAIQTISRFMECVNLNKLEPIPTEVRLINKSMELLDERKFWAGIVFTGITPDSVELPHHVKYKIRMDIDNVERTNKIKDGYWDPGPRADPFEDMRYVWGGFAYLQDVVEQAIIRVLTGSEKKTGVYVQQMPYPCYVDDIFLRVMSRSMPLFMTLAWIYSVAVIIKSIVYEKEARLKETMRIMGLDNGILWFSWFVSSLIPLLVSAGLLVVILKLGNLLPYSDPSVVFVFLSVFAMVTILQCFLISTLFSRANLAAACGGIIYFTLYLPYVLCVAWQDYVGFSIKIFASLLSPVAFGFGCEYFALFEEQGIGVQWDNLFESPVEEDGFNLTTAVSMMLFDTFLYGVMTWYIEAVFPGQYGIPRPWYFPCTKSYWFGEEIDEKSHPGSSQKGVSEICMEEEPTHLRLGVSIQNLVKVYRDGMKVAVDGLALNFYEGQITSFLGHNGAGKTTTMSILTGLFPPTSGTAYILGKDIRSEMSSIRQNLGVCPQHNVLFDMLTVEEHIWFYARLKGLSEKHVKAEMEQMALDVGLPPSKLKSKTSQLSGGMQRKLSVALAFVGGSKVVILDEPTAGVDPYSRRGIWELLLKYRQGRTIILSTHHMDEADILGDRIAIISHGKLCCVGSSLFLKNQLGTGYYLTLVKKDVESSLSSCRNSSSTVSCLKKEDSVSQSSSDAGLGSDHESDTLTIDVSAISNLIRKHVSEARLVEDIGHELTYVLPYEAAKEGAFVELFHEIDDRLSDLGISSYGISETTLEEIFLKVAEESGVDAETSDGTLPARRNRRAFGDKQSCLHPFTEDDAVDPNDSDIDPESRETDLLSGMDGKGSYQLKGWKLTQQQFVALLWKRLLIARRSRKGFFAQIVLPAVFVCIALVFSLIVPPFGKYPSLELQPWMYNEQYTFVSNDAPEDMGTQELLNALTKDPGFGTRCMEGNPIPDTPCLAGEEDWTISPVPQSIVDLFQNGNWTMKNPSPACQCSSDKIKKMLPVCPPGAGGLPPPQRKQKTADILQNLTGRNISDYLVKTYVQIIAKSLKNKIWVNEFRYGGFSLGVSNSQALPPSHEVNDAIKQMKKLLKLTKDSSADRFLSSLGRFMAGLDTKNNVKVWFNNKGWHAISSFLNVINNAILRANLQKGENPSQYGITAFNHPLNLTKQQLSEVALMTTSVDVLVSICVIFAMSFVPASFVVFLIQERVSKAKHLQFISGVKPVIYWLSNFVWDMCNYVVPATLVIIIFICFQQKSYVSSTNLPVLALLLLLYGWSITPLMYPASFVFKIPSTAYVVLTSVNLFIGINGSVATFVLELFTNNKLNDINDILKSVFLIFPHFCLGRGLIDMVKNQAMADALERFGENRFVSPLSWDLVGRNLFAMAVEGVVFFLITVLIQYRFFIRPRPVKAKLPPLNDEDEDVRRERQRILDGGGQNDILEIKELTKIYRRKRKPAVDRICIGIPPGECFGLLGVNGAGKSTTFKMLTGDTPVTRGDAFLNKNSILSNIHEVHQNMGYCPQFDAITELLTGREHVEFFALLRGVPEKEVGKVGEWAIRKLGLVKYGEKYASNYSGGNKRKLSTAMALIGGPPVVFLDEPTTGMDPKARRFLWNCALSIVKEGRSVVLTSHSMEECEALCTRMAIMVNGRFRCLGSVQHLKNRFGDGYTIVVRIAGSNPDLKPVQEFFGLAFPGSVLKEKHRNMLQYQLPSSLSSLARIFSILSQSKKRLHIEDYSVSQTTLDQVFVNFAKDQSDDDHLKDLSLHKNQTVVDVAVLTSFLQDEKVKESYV

**Q.** How did the EC50 turn out when `C=CCCCCC[C@@H](NC(=O)[C@H](CCC(=O)O)NC(=O)[C@H](CC(N)=O)NC(=O)[C@H](CC(C)C)NC(=O)[C@H](CCCCN)NC(=O)[C@H](CCC(=O)O)NC(=O)[C@H](CCCN=C(N)N)NC(=O)[C@H](Cc1ccccc1)NC(=O)[C@H](CCC(=O)O)NC(=O)[C@H](CC(=O)O)NC(=O)[C@H](CC(C)C)NC(=O)[C@@H](NC(=O)[C@@H]1CCCN1C(C)=O)C(C)C)C(=O)N[C@@H](CC(C)C)C(=O)N[C@@H](CCC(=O)O)C(=O)N[C@@H](C)C(=O)N[C@@H](CC(C)C)C(=O)N[C@@H](CCCCN)C(=O)N[C@@H](CCC(N)=O)C(=O)N[C@@H](CCCCN)C(=O)N[C@@H](CC(C)C)C(=O)N[C@@H](CCCCN)C(N)=O` (Ac-PVLDEFREKLNE[dGly(6-heptenyl)]LEALKQKLK-NH2) was run?
**A.** Its EC50 is 9.5 µM.

**Q.** For `C=CCCCC[C@H](NC(=O)[C@H](CCC(=O)O)NC(=O)[C@H](CC(N)=O)NC(=O)[C@H](CC(C)C)NC(=O)[C@H](CCCCN)NC(=O)[C@H](CCC(=O)O)NC(=O)[C@H](CCCNC(=N)N)NC(=O)[C@H](Cc1ccccc1)NC(=O)[C@H](CCC(=O)O)NC(=O)[C@H](CC(=O)O)NC(=O)[C@H](CC(C)C)NC(=O)[C@@H](NC(=O)[C@@H]1CCCN1C(C)=O)C(C)C)C(=O)N[C@@H](CC(C)C)C(=O)N[C@@H](CCC(=O)O)C(=O)N[C@@H](C)C(=O)N[C@@H](CC(C)C)C(=O)N[C@@H](CCCCN)C(=O)N[C@@H](CCC(N)=O)C(=O)N[C@@H](CCCCN)C(=O)N[C@@H](CC(C)C)C(=O)N[C@@H](CCCCN)C(N)=O` (Ac-PVLDEFREKLNE[X2]LEALKQKLK-NH2), which EC50 is on record?
**A.** The EC50 was 1.4 µM.

**Q.** `C=CCCCCC[C@H](NC(=O)[C@H](CCC(=O)O)NC(=O)[C@H](CC(N)=O)NC(=O)[C@H](CC(C)C)NC(=O)[C@H](CCCCN)NC(=O)[C@H](CCC(=O)O)NC(=O)[C@H](CCCN=C(N)N)NC(=O)[C@H](CCCCCC=C)NC(=O)[C@H](CCC(=O)O)NC(=O)[C@H](CC(=O)O)NC(=O)[C@H](CC(C)C)NC(=O)[C@H](CCCCCC=C)NC(=O)[C@@H]1CCCN1C(C)=O)C(=O)N[C@@H](CC(C)C)C(=O)N[C@@H](CCC(=O)O)C(=O)N[C@@H](C)C(=O)N[C@@H](CC(C)C)C(=O)N[C@@H](CCCCN)C(=O)N[C@@H](CCC(N)=O)C(=O)N[C@@H](CCCCN)C(=O)N[C@@H](CC(C)C)C(=O)N[C@@H](CCCCN)C(N)=O` (Ac-P[Ala(5-hexenyl)]LDE[Ala(5-hexenyl)]REKLNE[Ala(5-hexenyl)]LEALKQKLK-NH2) was tested. Which EC50 did it give?
**A.** Its EC50 is 1.9 µM.

**Q.** Which EC50 does the source give for `C=CCCCCC[C@@H](NC(=O)[C@H](CCC(=O)O)NC(=O)[C@H](CCC(=O)O)NC(=O)[C@H](CC(N)=O)NC(=O)[C@H](CC(C)C)NC(=O)[C@H](CCCCN)NC(=O)[C@H](CCC(=O)O)NC(=O)[C@H](CCCN=C(N)N)NC(=O)[C@H](Cc1ccccc1)NC(=O)[C@H](CCC(=O)O)NC(=O)[C@H](CC(=O)O)NC(=O)[C@H](CC(C)C)NC(=O)[C@@H](NC(=O)[C@@H]1CCCN1C(C)=O)C(C)C)C(=O)N[C@@H](CCC(=O)O)C(=O)N[C@@H](C)C(=O)N[C@@H](CC(C)C)C(=O)N[C@@H](CCCCN)C(=O)N[C@@H](CCC(N)=O)C(=O)N[C@@H](CCCCN)C(=O)N[C@@H](CC(C)C)C(=O)N[C@@H](CCCCN)C(N)=O` here?
**A.** Its EC50 is over 100 µM.

**Q.** Which EC50 does the source give for `C=CCCCC[C@@H](NC(=O)[C@H](CCC(=O)O)NC(=O)[C@H](CCC(=O)O)NC(=O)[C@H](CC(N)=O)NC(=O)[C@H](CC(C)C)NC(=O)[C@H](CCCCN)NC(=O)[C@H](CCC(=O)O)NC(=O)[C@H](CCCN=C(N)N)NC(=O)[C@H](Cc1ccccc1)NC(=O)[C@H](CCC(=O)O)NC(=O)[C@H](CC(=O)O)NC(=O)[C@H](CC(C)C)NC(=O)[C@@H](NC(=O)[C@@H]1CCCN1C(C)=O)C(C)C)C(=O)N[C@@H](CCC(=O)O)C(=O)N[C@@H](C)C(=O)N[C@@H](CC(C)C)C(=O)N[C@@H](CCCCN)C(=O)N[C@@H](CCC(N)=O)C(=O)N[C@@H](CCCCN)C(=O)N[C@@H](CC(C)C)C(=O)N[C@@H](CCCCN)C(N)=O` here?
**A.** Its EC50 is over 100 µM.

**Q.** Which EC50 does the source give for `C=CCCCC[C@@H](NC(=O)[C@@H](NC(=O)[C@@H]1CCCN1C(C)=O)C(C)C)C(=O)N[C@@H](CC(=O)O)C(=O)N[C@@H](CCC(=O)O)C(=O)N[C@@H](Cc1ccccc1)C(=O)N[C@@H](CCCNC(=N)N)C(=O)N[C@@H](CCC(=O)O)C(=O)N[C@@H](CCCCN)C(=O)N[C@@H](CC(C)C)C(=O)N[C@@H](CC(N)=O)C(=O)N[C@@H](CCC(=O)O)C(=O)N[C@@H](CCC(=O)O)C(=O)N[C@@H](CC(C)C)C(=O)N[C@@H](CCC(=O)O)C(=O)N[C@@H](C)C(=O)N[C@@H](CC(C)C)C(=O)N[C@@H](CCCCN)C(=O)N[C@@H](CCC(N)=O)C(=O)N[C@@H](CCCCN)C(=O)N[C@@H](CC(C)C)C(=O)N[C@@H](CCCCN)C(N)=O` here?
**A.** The EC50 was over 100 µM.

**Q.** How did the EC50 turn out when `C=CCCCCCC[C@H](NC(=O)[C@H](CCC(=O)O)NC(=O)[C@H](CC(N)=O)NC(=O)[C@H](CC(C)C)NC(=O)[C@H](CCCCN)NC(=O)[C@H](CCC(=O)O)NC(=O)[C@H](CCCN=C(N)N)NC(=O)[C@H](CCCCCCC=C)NC(=O)[C@H](CCC(=O)O)NC(=O)[C@H](CC(=O)O)NC(=O)[C@H](CC(C)C)NC(=O)[C@@H](NC(=O)[C@@H]1CCCN1C(C)=O)C(C)C)C(=O)N[C@@H](CC(C)C)C(=O)N[C@@H](CCC(=O)O)C(=O)N[C@@H](C)C(=O)N[C@@H](CC(C)C)C(=O)N[C@@H](CCCCN)C(=O)N[C@@H](CCC(N)=O)C(=O)N[C@@H](CCCCN)C(=O)N[C@@H](CC(C)C)C(=O)N[C@@H](CCCCN)C(N)=O` (Ac-PVLDE[Gly(oct-7-en-1-yl)]REKLNE[Gly(oct-7-en-1-yl)]LEALKQKLK-NH2) was run?
**A.** Its EC50 is 0.4 µM.

**Q.** With `C=CCCC[C@@H](NC(=O)[C@H](CCC(=O)O)NC(=O)[C@H](CC(=O)O)NC(=O)[C@H](CC(C)C)NC(=O)[C@@H](NC(=O)[C@@H]1CCCN1C(C)=O)C(C)C)C(=O)N[C@@H](CCCNC(=N)N)C(=O)N[C@@H](CCC(=O)O)C(=O)N[C@@H](CCCCN)C(=O)N[C@@H](CC(C)C)C(=O)N[C@@H](CC(N)=O)C(=O)N[C@@H](CCC(=O)O)C(=O)N[C@@H](CCC(=O)O)C(=O)N[C@@H](CC(C)C)C(=O)N[C@@H](CCC(=O)O)C(=O)N[C@@H](C)C(=O)N[C@@H](CC(C)C)C(=O)N[C@@H](CCCCN)C(=O)N[C@@H](CCC(N)=O)C(=O)N[C@@H](CCCCN)C(=O)N[C@@H](CC(C)C)C(=O)N[C@@H](CCCCN)C(N)=O` as the compound, how does the EC50 read?
**A.** The EC50 was over 100 µM.

**Q.** For `C=CCCCCC[C@H](NC(=O)[C@H](CCC(N)=O)NC(=O)[C@H](CCCCN)NC(=O)[C@H](CC(C)C)NC(=O)[C@H](C)NC(=O)[C@H](CCC(=O)O)NC(=O)[C@H](CC(C)C)NC(=O)[C@H](CCC(=O)O)NC(=O)[C@H](CCC(=O)O)NC(=O)[C@H](CC(N)=O)NC(=O)[C@H](CC(C)C)NC(=O)[C@H](CCCCN)NC(=O)[C@H](CCC(=O)O)NC(=O)[C@H](CCCNC(=N)N)NC(=O)[C@H](Cc1ccccc1)NC(=O)[C@H](CCC(=O)O)NC(=O)[C@H](CC(=O)O)NC(=O)[C@H](CC(C)C)NC(=O)[C@@H](NC(=O)[C@@H]1CCCN1C(C)=O)C(C)C)C(=O)N[C@@H](CC(C)C)C(=O)N[C@@H](CCCCN)C(N)=O`, which EC50 is on record?
**A.** Its EC50 is over 100 µM.

**Q.** How did the EC50 turn out when `C=CCCCCC[C@@H](NC(=O)[C@H](CCCCN)NC(=O)[C@H](CCC(=O)O)NC(=O)[C@H](CCCN=C(N)N)NC(=O)[C@H](Cc1ccccc1)NC(=O)[C@H](CCC(=O)O)NC(=O)[C@H](CC(=O)O)NC(=O)[C@H](CC(C)C)NC(=O)[C@@H](NC(=O)[C@@H]1CCCN1C(C)=O)C(C)C)C(=O)N[C@@H](CC(N)=O)C(=O)N[C@@H](CCC(=O)O)C(=O)N[C@@H](CCC(=O)O)C(=O)N[C@@H](CC(C)C)C(=O)N[C@@H](CCC(=O)O)C(=O)N[C@@H](C)C(=O)N[C@@H](CC(C)C)C(=O)N[C@@H](CCCCN)C(=O)N[C@@H](CCC(N)=O)C(=O)N[C@@H](CCCCN)C(=O)N[C@@H](CC(C)C)C(=O)N[C@@H](CCCCN)C(N)=O` was run?
**A.** The EC50 was over 100 µM.
